A short description of this data set: in vitro. As to conditions: human, hela cells, % viability.

This note sets out measurements from PMC12040169 (PLOS Biology, 2025).

Regarding `Cc1cnccc1CN1CCC[C@@H]2CN(C(=O)CC(C)C)C[C@@H]21` [CBK285289], the viability at 28.5 h, 10 µM is 104%.
The same measure, in the same setting: to `Cc1cc(OCC(=O)N(C)C)c2c3c(c(=O)oc2c1)CCCC3` [CBK307189] belongs 96.3%; to `O=C(C1C2CCCCC21)N1CCC(c2nnc3n2CCCCC3)CC1` (stereo not drawn) [CBK283351], 95.2%; to `O=C(CC(Nc1ccc2ccccc2c1)c1ccncc1)c1ccc(Br)cc1` (stereo not drawn) [CBK262209], 98.7%.
On the same count and under the same terms, to `COCc1cc(O)nc(Cc2c(Cl)cccc2Cl)n1` [CBK022389] belongs 96.7%.
As to `COc1cc(NC(=O)CCN2CCN(C)CC2)cc(OC)c1` [CBK264193], the viability at 28.5 h, 10 µM turned out to be 92.5%.
The same measure, in the same setting: to `CN(C)c1ccc(C(=O)N2C3CCC2CC(O)(c2ccco2)C3)cc1` (stereo not drawn) [CBK284117] belongs 93.3%; to `Cc1cc(CNS(=O)(=O)c2sc3ccc(C(C)C)cc3c2C)no1` [CBK170353], 109%.
The same measure, in the same setting: to `O=C(O)Cn1nnc(-c2ccc(C(=O)O)cc2)n1` [CBK267926] belongs 85%.
On to `CN1CCN(c2ccc(C=C3C(=O)NC(=S)NC3=O)o2)CC1` [CBK264367], for which the viability at 28.5 h, 10 µM (bulk resorufin, single well) worked out at 98.6%.
Consider `FC(F)(F)c1ccc(Oc2ccc(-c3noc(-c4cccnc4)n3)cc2)nc1` [CBK270166], for which the viability at 28.5 h, 10 µM came out at 90.3%.
The same measure, in the same setting: to `CN(C)CCn1c(C(=O)O)cc2ccccc21` [CBK268234C] belongs 110%; to `N=C1OC2CSCC2N1C(=O)Cc1ccc(F)cc1` (stereo not drawn) [CBK284515], 103%.
Still for that read-out and setting: to `CCOC(=O)C1CSCCN1C(=O)c1ccc(-n2nc(C)cc2C)cc1` (stereo not drawn) [CBK304517] belongs 86.4%; to `O=C(OCc1ccccc1)Oc1cncc(C(=O)O)c1` [CBK262053], 91.1%; to `COC(=O)c1sc2ncccc2c1NS(=O)(=O)c1cc(Br)c(Cl)s1` [CBK049973], 112%.
On the same count and under the same terms, in the case of `O=[N+]([O-])c1ccc(NCCNc2nc3ccccc3nc2N2CCOCC2)cc1` [CBK266342] it was 107%.
Regarding `O=C(NCCc1ccccn1)c1ccc(Cl)cc1Cl` [CBK015946], the viability at 28.5 h, 10 µM was 81.4%.
The same measure, in the same setting: to `O=C1Cc2cc3ccccc3cc2C2(CCN(C(=O)c3ccccc3C(=O)O)CC2)N1` [CBK047216] belongs 94.8%; to `O=S(=O)(c1ccc(-c2ccccc2)cc1)N1CCCN(Cc2ccc(F)c(C(F)(F)F)c2)CC1` [CBK063115], 98.9%.
As to `CC(C)(C)NS(=O)(=O)c1ccccc1[N+](=O)[O-]` [CBK260932], the viability at 28.5 h, 10 µM amounted to 97.8%.
Still for that read-out and setting: to `O=C(O)c1cccc(NS(=O)(=O)c2cccs2)c1` [CBK270068] belongs 59.5%; to `O=C(NCc1cccs1)C1(Cc2ccc(-c3ccc(F)c(F)c3)cc2)CCOCC1` [CBK285533], 99.5%; to `CC(=O)c1ccc(-c2nc(-c3cccc(OC(F)(F)F)c3)cnc2N)cc1` [CBK064105], 103%.
On the same count and under the same terms, in the case of `O=C(Nc1cccc(C(F)(F)F)c1)c1c(O)c2ccccc2[nH]c1=O` [CBK159985] it was 93.2%.
Still for that read-out and setting: in the case of `CNC(=O)C1(Cc2ccccc2-c2cccs2)CCN(C(=O)Cc2ccc(C)cc2)CC1` [CBK285697] it was 95%; in that of `N=C(N)NCc1ccc(Cl)cc1` [CBK002260], 95.7%.
`O=C(Cn1cccc2cc(-c3ccc(F)cc3)nc1-2)N1CCOCC1` [CBK284809]: the viability at 28.5 h, 10 µM was found to be 87.5%.
The same measure, in the same setting: to `CC[C@H]1CCCCN1C(=O)c1sc2ncccc2c1Cl` [CBK092276] belongs 104%; to `CN(C)C(=O)[C@H]1CC[C@]2(CC1)CNC(=O)c1ccccc1O2` [CBK284894], 92.7%.
The same measure, in the same setting: to `CN(C)c1cccc(Nc2cc(-c3ccc(CCC(=O)O)cc3)ncn2)c1` [CBK091010] belongs 93.1%.
Still for that read-out and setting: in the case of `O=C(CC1OCCc2ccsc21)N1CCCC(n2cccn2)C1` (stereo not drawn) [CBK305154] it was 96.7%.
Consider `O=C(O)CCC(=O)NCC1(c2ccccc2)CCCC1` [CBK286679], for which the viability at 28.5 h, 10 µM was 89.7%.
Same read-out and setting: in the case of `Nc1nonc1OCCCCOc1nonc1N` [CBK027716] it was 110%; in that of `O=C(NCCc1c[nH]cn1)N1CCCN(Cc2ccc(F)cc2)CC1` [CBK307323], 111%.
The same measure, in the same setting: to `Cn1ccc(C(=O)NCc2cccnc2OCC(F)(F)F)cc1=O` [CBK305574] belongs 99.9%; to `CN1CCN(CCC(=O)N/N=C/c2ccccn2)CC1` [CBK261501], 114%.
Same read-out and setting: in the case of `CC(C)Nc1nccnc1OC1CCNC1` (stereo not drawn) [CBK115279] it was 92.5%.
In the case of `COc1cc2c(cc1-c1cn(CCN3CCCOC3=O)nn1)CCC2` [CBK306515], the viability at 28.5 h, 10 µM was 107%.
Same read-out and setting: to `O=C(C1=C(O)C(=O)N(CCN2CCOCC2)C1c1ccccn1)c1cc2ccccc2o1` (stereo not drawn) [CBK269576] belongs 107%; to `Cc1nc(-c2ccc(CNS(=O)(=O)c3ccc(Cl)cc3)cc2)ccc1C(N)=O` [CBK285643], 90.5%; to `O=C(Nc1nc(OCC(F)(F)F)cnc1-c1ccc(Cl)cc1Cl)c1cc2ccccc2s1` [CBK145358], 87.4%.
For `C[S+]([O-])c1ccc(-c2cnc(NCC3CCN(C(=O)OC(C)(C)C)CC3)cn2)cc1` (stereo not drawn) [CBK173723], the viability at 28.5 h, 10 µM came out at 83.4%.
Still for that read-out and setting: to `CCn1c(SCC(=O)Nc2ccc([N+](=O)[O-])cc2O)nnc1-c1ccccc1` [CBK268730] belongs 87.2%.
With `Cc1cccc(-c2ccc(CC3(C(=O)NC(C)C)CCN(C(=O)C(C)(C)C)CC3)cc2)c1` [CBK285758], the viability at 28.5 h, 10 µM worked out at 96.2%.
The same measure, in the same setting: to `COc1ccc(Sc2nccc(C(F)(F)F)n2)cc1OC` [CBK093772] belongs 90.4%; to `Nn1c(Cn2nnc3ccccc32)n[nH]c1=S` [CBK268233], 111%; to `O=C(O)CCc1ccc(-c2cc(N3CCN(c4ccccn4)CC3)ncn2)cc1` [CBK037821], 105%.
The same measure, in the same setting: in the case of `COc1ccc(Cn2c(=O)n(C(=O)CCc3cccc(OC)c3)c3ccccc32)cc1` [CBK106557] it was 113%; in that of `COC(=O)c1c(NC(=O)C(=O)NCc2ccccn2)sc2c1CCC2` [CBK269431], 94.6%; in that of `CCc1nc2ccc(C(=O)Nc3ccc(NC(C)=O)cc3)cn2c1N(C)CC` [CBK145483], 94.5%.
As to `c1ccc(Cc2csc(C3CN4CCCC4CO3)n2)cc1` (stereo not drawn) [CBK304202], the viability at 28.5 h, 10 µM came out at 90.2%.
Same read-out and setting: in the case of `Cn1cc(-c2nc(C3COCCN3C(=O)c3cccc(Cl)c3)no2)cn1` (stereo not drawn) [CBK305443] it was 80.1%; in that of `Cn1c(=O)n(CC(=O)Nc2ccc(F)cc2)c2cccnc21` [CBK283919], 101%.
Still for that read-out and setting: in the case of `CCC(CC)C(=O)N1CC[C@H]2NC(=O)N(Cc3ccccc3)C(=O)[C@H]21` [CBK289291] it was 88.7%; in that of `Cc1cc(NC2CC3CCCC(C2)N3C)nc(N)n1` (stereo not drawn) [CBK170333], 88.4%; in that of `CC(=O)CSc1nnc(COc2ccc(C3CCCCC3)cc2)n1-c1ccccc1` [CBK265026], 116%.
On the same count and under the same terms, to `CC(C)(C)Nc1c(C2CCN(C(=O)C3CC3)CC2)nc2ccccn12` [CBK284787] belongs 104%.
On to `Cc1cnc(C(=O)N2CCC3(CC2)CC(=O)c2cc(Cl)cc(Cl)c2O3)cn1` [CBK156502], for which the viability at 28.5 h, 10 µM was determined as 89.7%.
Same read-out and setting: to `CC(=O)c1ccc(NC(=O)c2cccc(Cl)c2)cc1` [CBK033939] belongs 89.3%; to `COc1ccc(-c2cc(C(=O)N[C@@H](C)c3ccccc3)cnc2-c2cccc(C)c2)cc1` [CBK036635], 105%.
Turning to `O=C(O)/C=C(/CC(=O)O)C(=O)O` [CBK260936], the viability at 28.5 h, 10 µM is 102%.
Still for that read-out and setting: in the case of `NC1CCN(C(=O)c2cn(C3CC3)c3cc(Cl)c(F)cc3c2=O)CC1` [CBK168626] it was 93.3%; in that of `CN1CCCC1C(CCNC1CCCCC1)c1ccccc1` (stereo not drawn) [CBK023921C], 99%; in that of `CN(C)S(=O)(=O)N1CCN(C(=O)N(c2ccccc2)c2ccccc2)CC1` [CBK267466], 96.7%.
On to `O=C(CCn1cnnn1)Nc1cc(C(F)(F)F)ccc1Cl` [CBK270127], for which the viability at 28.5 h, 10 µM worked out at 91.4%.
On the same count and under the same terms, in the case of `O=C(Nc1ccc(Cl)cc1C(=O)NCCN1CCOCC1)c1ccc(Cl)cc1Cl` [CBK265749] it was 105%.
On the same count and under the same terms, in the case of `O=C(N[C@H]1CO[C@H]2[C@@H]1OC[C@@H]2n1cc(CC2CCCCC2)nn1)C1CC1` [CBK289509] it was 92.2%.
Still for that read-out and setting: to `O=C(CSc1ccc2nnc(-c3ccccc3)n2n1)NCc1ccco1` [CBK287514] belongs 95.6%; to `COc1nccnc1/C=C/c1ccccc1` [CBK106876], 115%.
Turning to `Cn1c(SCCC(=O)O)nnc1-c1ccc2c(c1)OCO2` [CBK269842], the viability at 28.5 h, 10 µM was found to be 92.6%.
Same read-out and setting: to `CSCCN1CCN(c2nccnc2Oc2ccc(F)cc2)CC1` [CBK083028T] belongs 93.2%.
The same measure, in the same setting: to `O=C1N=C(NC2CCCCCC2)SC1Cc1nc2ccccc2[nH]1` (stereo not drawn) [CBK066789] belongs 83.7%; to `CCC(=O)N1CCC(c2nc(Cc3cccs3)no2)C1` (stereo not drawn) [CBK282968], 88.5%; to `Cc1cc(CNC(=O)COc2cc(Cl)ccc2Cl)c2ccccc2n1` [CBK269788], 89.1%.
Still for that read-out and setting: to `N#CCCn1cc(C(=O)N2CCOCC2)c(-c2cc3ccccc3o2)n1` [CBK306203] belongs 104%; to `COc1ccccc1CC(=O)N(Cc1cccnc1)C[C@@H]1CCC(=O)N1` [CBK307504], 95.7%; to `Cc1cc(Cc2cnc(NC(=O)C3CCS(=O)(=O)C3)s2)ccc1Br` (stereo not drawn) [CBK298281], 90%.
Turning to `CCOC(=O)Cc1csc(NS(=O)(=O)/C=C/c2ccccc2)n1` [CBK000072], the viability at 28.5 h, 10 µM was found to be 101%.
Same read-out and setting: to `N#Cc1c(NC(=O)CSc2nc(=O)cc(N)n2CCc2ccccc2)sc2c1CCCC2` [CBK293993] belongs 82.4%; to `CC(C)Nc1nc2ccccc2nc1SCCOc1ccccc1` [CBK103668], 89.8%.
